Results published in US8829030B2 (priority 2002, dated 2014).

These molecules were tested against recombinant HCV RNA-dependent RNA polymerase (NS5B protein) (Hepatitis C virus genotype 1b, UniProt P26663) (assay: biochemical). Settings: not given.
recombinant HCV RNA-dependent RNA polymerase (NS5B protein), sequence (P26663 2420-3010 limits assumed): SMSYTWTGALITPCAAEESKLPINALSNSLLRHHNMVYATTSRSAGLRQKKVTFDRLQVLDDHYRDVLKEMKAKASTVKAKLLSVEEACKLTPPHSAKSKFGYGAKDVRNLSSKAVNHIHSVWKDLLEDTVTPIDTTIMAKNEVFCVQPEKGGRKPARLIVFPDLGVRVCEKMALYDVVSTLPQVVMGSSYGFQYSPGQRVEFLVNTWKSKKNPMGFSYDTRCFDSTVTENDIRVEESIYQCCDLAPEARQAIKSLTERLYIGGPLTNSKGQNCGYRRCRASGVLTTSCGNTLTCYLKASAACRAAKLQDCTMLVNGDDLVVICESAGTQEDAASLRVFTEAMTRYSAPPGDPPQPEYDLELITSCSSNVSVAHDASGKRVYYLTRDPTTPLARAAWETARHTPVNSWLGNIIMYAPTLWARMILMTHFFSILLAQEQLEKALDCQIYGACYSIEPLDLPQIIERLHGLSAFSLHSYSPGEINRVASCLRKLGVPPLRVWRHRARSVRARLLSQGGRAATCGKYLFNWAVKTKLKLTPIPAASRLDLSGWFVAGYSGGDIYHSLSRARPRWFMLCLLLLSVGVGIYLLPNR
Design: species or system HCV-Bk strain
COc1ccc(-c2cc(N(C(=O)C3CCC(C)CC3)C3CCC(O)CC3)c(C(=O)O)s2)cc1 (stereo not drawn) [Compound 60, 3-[(4-hydroxy-cyclohexyl)-(4-methyl-cyclohexanecarbonyl)-amino]-5-(4-methoxy-phenyl)-thiophene-2-carboxylic acid] was tested, and the IC50 was < 5 µM.
With CC1CCC(C(=O)N(c2cc(-c3ccc(C#N)cc3)sc2C(=O)O)C2CCC(O)CC2)CC1 (stereo not drawn) [Compound 61, 5-(4-cyano-phenyl)-3-[(4-hydroxy-cyclohexyl)-(4-methyl-cyclohexanecarbonyl)-amino]-thiophene-2-carboxylic acid] the IC50 was < 5 µM.
For COc1ccc(-c2cc(N(C(=O)C3CCC(C)CC3O)C(C)C)c(C(=O)O)s2)cc1 (stereo not drawn) [Compound 62, 3-[(2-hydroxy-4-methyl-cyclohexanecarbonyl)-isopropyl-amino]-5-(4-methoxy-phenyl)-thiophene-2-carboxylic acid], the IC50 was < 5 µM.
For CC1CCC(C(=O)N(c2cc(-c3ccccc3)sc2C(=O)O)C2CCN(C=O)CC2)CC1 (stereo not drawn) [Compound 63, 3-[(1-formyl-piperidin-4-yl)-(4-methyl-cyclohexanecarbonyl)-amino]-5-phenyl-thiophene-2-carboxylic acid], the IC50 was < 5 µM.
CC1CCC(C(=O)N(c2cc(-c3ccccc3)sc2C(=O)O)N(C)C)CC1 (stereo not drawn) [Compound 64, 3-[N′,N′-dimethyl-n-(4-methyl-cyclohexanecarbonyl)-hydrazino]-5-phenyl-thiophene-2-carboxylic acid] was tested, and the IC50 was < 5 µM.
CC1CCC(C(=O)N(CC2CCCN(C)C2)c2cc(-c3ccc(F)cc3)sc2C(=O)O)CC1 (stereo not drawn) [Compound 69, 5-(4-fluorophenyl)-((4-methyl-cyclohexanecarbonyl)-1-(methyl-piperidin-3-ylmethyl)-amino)-thiophene-2-carboxylic acid] was tested, and the IC50 was < 5 µM.
With CS(=O)(=O)N1CCC(N(c2cc(-c3ccccc3)sc2C(=O)O)C(=O)[C@H]2CC[C@H](C)CC2)CC1 [Compound 70, 3-[(1-methanesulfonyl-piperidin-4-yl)-(4-methyl-cyclohexanecarbonyl)-amino]-5-phenyl-thiophene-2-carboxylic acid] the IC50 was < 5 µM.
With CNC(=O)N1CCC(N(C(=O)C2CCC(C)CC2)c2cc(-c3ccccc3)sc2C(=O)O)CC1 (stereo not drawn) [Compound 71, 3-[(1-methylcarbamoyl-piperidin-4-yl)-(4-methyl-cyclohexanecarbonyl)-amino]-5-phenyl-thiophene-2-carboxylic acid] the IC50 was < 5 µM.
CN(C)N(C(=O)c1ccc(Cl)cc1Cl)c1cc(-c2ccccc2)sc1C(=O)O [Compound 72, 3-[n-(2,4-dichloro-benzoyl)-N′,N′-dimethyl-hydrazino]-5-phenyl-thiophene-2-carboxylic acid] was tested, and the IC50 was < 5 µM.
With C[C@H]1CC[C@H](C(=O)N(c2cc(-c3ccc(F)cc3)sc2C(=O)O)[C@H]2CC[C@@H](O)CC2)CC1 [Compound 73, 5-(4-fluoro-phenyl)-3-[(4-hydroxy-cyclohexyl)-(4-methyl-cyclohexanecarbonyl)-amino]-thiophene-2-carboxylic acid] the IC50 was < 5 µM.
In the case of CC1CCC(C(=O)N(c2cc(-c3ccccc3)sc2C(=O)O)[C@H]2CC[C@H](C(=O)O)CC2)CC1 (stereo partly drawn) [Compound 76, 3-[(4-carboxy-cyclohexyl)-(4-methyl-cyclohexanecarbonyl)-amino]-5-phenyl-thiophene-2-carboxylic acid], the IC50 is reported as < 5 µM.
CC1CCC(C(=O)N(c2cc(-c3ccccc3)sc2C(=O)O)C2CCN(C#N)CC2)CC1 (stereo not drawn) [Compound 77, 3-[(1-cyano-piperidin-4-yl)-(4-methyl-cyclohexanecarbonyl)-amino]-5-phenyl-thiophene-2-carboxylic acid] was tested, and the IC50 was < 5 µM.
In the case of CC1CCC(C(=O)N(c2cc(-c3ccccc3)sc2C(=O)O)[C@H]2CC[C@@H](C(=O)O)CC2)CC1 (stereo partly drawn) [Compound 78, 3-[(4-carboxy-cyclohexyl)-(4-methyl-cyclohexanecarbonyl)-amino]-5-phenyl-thiophene-2-carboxylic acid], the IC50 is reported as < 5 µM.
In the case of C[C@H]1CC[C@H](C(=O)N(c2cc(-c3ccc(F)c(F)c3)sc2C(=O)O)[C@H]2CC[C@H](O)CC2)CC1 [Compound 79, 5-(3,4-difluoro-phenyl)-3-[(4-hydroxy-cyclohexyl)-(4-methyl-cyclohexanecarbonyl)-amino]-thiophene-2-carboxylic acid], the IC50 is reported as < 5 µM.
CC(=O)c1ccc(-c2cc(N(C(=O)[C@H]3CC[C@H](C)CC3)[C@H]3CC[C@H](O)CC3)c(C(=O)O)s2)s1 [Compound 80, 5′-acetyl-4-[(4-hydroxy-cyclohexyl)-(4-methyl-cyclohexanecarbonyl)-amino]-[2,2′]bithiophenyl-5-carboxylic acid] was tested, and the IC50 was < 5 µM.
CC1CCC(C(=O)N(c2cc(-c3ccccc3)sc2C(=O)O)C2CCN(C(N)=O)CC2)CC1 (stereo not drawn) [Compound 81, 3-[(1-carbamoyl-piperidin-4-yl)-(4-methyl-cyclohexanecarbonyl)-amino]-5-phenyl-thiophene-2-carboxylic acid] was tested, and the IC50 was < 5 µM.
CCN(C(=O)c1ccc(C)cc1)c1cc(-c2ccccc2)sc1C(=O)O [Compound 84, 3-[ethyl-(4-methyl-benzoyl)-amino]-5-phenyl-thiophene-2-carboxylic acid] was tested, and the IC50 was < 5 µM.
In the case of CC(=O)c1ccc(-c2cc(N(C(=O)[C@H]3CC[C@H](C)CC3)[C@H]3CC[C@H](O)CC3)c(C(=O)O)s2)cc1 [Compound 85, 5-(4-acetyl-phenyl)-3-[(4-hydroxy-cyclohexyl)-(4-methyl-cyclohexanecarbonyl)-amino]-thiophene-2-carboxylic acid], the IC50 is reported as < 5 µM.
In the case of C[C@H]1CC[C@H](C(=O)N(c2cc(-c3ccccc3)sc2C(=O)O)[C@H]2CC[C@](C)(O)CC2)CC1 [Compound 88, 3-[(4-hydroxy-4-methyl-cyclohexyl)-(4-methyl-cyclohexanecarbonyl)-amino]-5-phenyl-thiophene-2-carboxylic acid], the IC50 is reported as < 5 µM.
With C[C@H]1CC[C@H](C(=O)N(c2cc(-c3ccccc3)sc2C(=O)O)[C@H]2CC[C@H](O)C2)CC1 [Compound 90, 3-[(3-hydroxy-cyclopentyl)-(4-methyl-cyclohexanecarbonyl)-amino]-5-phenyl-thiophe-2-carboxylic acid] the IC50 was < 5 µM.

Same assay, conditions: read-out: Activity (polymerase activity, IC50)
In the case of CNC(=O)N1CCC(N(C(=O)C2CCC(C)CC2)c2cc(-c3ccccc3)sc2C(=O)O)CC1 (stereo not drawn) [Compound 74, 3-[(1-methylcarbamoyl-piperidin-4-yl)-(4-methyl-cyclohexanecarbonyl)-amino]-5-phenyl-thiophene-2-carboxylic acid], the IC50 is reported as < 5 µM.
With CC1CCC(C(=O)N(c2cc(-c3ccccc3)sc2C(=O)O)C2CCN(C)C(=O)C2)CC1 (stereo not drawn) [Compound 75, 3-[(4-methyl-cyclohexanecarbonyl)-(1-methyl-2-oxo-piperidin-4-yl)-amino]-5-phenyl-thiophene-2-carboxylic acid] the IC50 was < 5 µM.
With CC1CCC(C(=O)N(c2cc(-c3ccccc3)sc2C(=O)O)C2CCNC(=O)CC2)CC1 (stereo not drawn) [Compound 82, 3-[(4-methyl-cyclohexanecarbonyl)-(7-oxo-azepan-4-yl)-amino]-5-phenyl-thiophene-2-carboxylic acid] the IC50 was < 5 µM.
With CC1CCC(C(=O)N(c2cc(-c3ccccc3)sc2C(=O)O)C2CCN(C(=O)C(N)=O)CC2)CC1 (stereo not drawn) [Compound 83, 3-[(1-aminooxalyl-piperidin-4-yl)-(4-methyl-cyclohexanecarbonyl)-amino]-5-phenyl-thiophene-2-carboxylic acid] the IC50 was < 5 µM.
